Where two headings read alike, the source gives them in different places.
Experiments:
[1] = Bioavailability of ABT-737 in a rat model; format: in vivo; settings: regardless of formulation
Solubility in water = format: physicochemical
From the text: It will be recognized that aqueous solubility of many compounds is pH dependent; in the case of such compounds the solubility of interest herein is at a physiologically relevant pH, for example a pH of about 1 to about 8.

Bioavailability [1] [%] | solubility (Solubility in water; pH 2, aqueous buffer, read-out: solubility in water at pH 2) [µg/mL] | solubility (Solubility in water; physiologically relevant pH, about 1 to about 8, read-out: solubility in water) [µg/mL] | SMILES
≤ 6 | – | – | CN(C)CC[C@H](CSc1ccccc1)Nc1ccc(S(=O)(=O)NC(=O)c2ccc(N3CCN(Cc4ccccc4-c4ccc(Cl)cc4)CC3)cc2)cc1[N+](=O)[O-] [ABT-737, N-(4-(4-((4′-chloro-(1,1′-biphenyl)-2-yl)methyl)piperazin-1-yl)benzoyl)-4-(((1R)-3-(dimethylamino)-1-((phenylsulfanyl)methyl)propyl)amino)-3-nitrobenzene-sulfonamide]
– | < 4 | < 10 | CC1(C)CCC(c2ccc(Cl)cc2)=C(CN2CCN(c3ccc(C(=O)NS(=O)(=O)c4ccc(N[C@H](CCN5CCOCC5)CSc5ccccc5)c(S(=O)(=O)C(F)(F)F)c4)cc3)CC2)C1 [ABT-263]
